Data reported in patent EP1212309B1, “CASPASE INHIBITOR” (LG Chem Investment, Ltd., priority 1999, dated 2001).

Tests used:
caspase-1 = biological target: T1, caspase-1 (Homo sapiens, UniProt P29466); assay: Screening on caspases inhibiting activity (recombinant enzyme, fluorogenic AMC substrate); assay type: biochemical; conditions: Irreversible Inhibitors; for kinact/KI: read-out: Kobs/[I] for caspase-1
T1 construct: made in house
T1 sequence (P29466 120-297 limits assumed): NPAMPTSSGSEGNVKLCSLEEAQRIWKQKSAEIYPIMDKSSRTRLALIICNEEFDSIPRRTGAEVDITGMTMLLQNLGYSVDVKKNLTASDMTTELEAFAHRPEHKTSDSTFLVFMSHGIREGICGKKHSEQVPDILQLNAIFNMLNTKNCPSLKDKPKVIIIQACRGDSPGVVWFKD
T1 sequence (P29466 317-404 limits assumed): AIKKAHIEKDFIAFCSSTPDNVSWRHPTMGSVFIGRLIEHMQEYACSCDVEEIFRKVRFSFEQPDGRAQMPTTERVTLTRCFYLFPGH
Experimental: (§1) In the present experiment, recombinant caspases were purified from a transformed bacterium after human caspase genes were cloned into the expression vector pET, and then used in the experiment (Thornberry, N.A. et .al. Nature, 1992, 356, 768. Thombeny, N.A. Methods in Enzymology, 1994, 615.).
(§2) Enzymatic activity was measured by a known procedure (Walker N.P.C. et al., Cell 1994, 78, 343). Briefly, 10 ng of recombinant protein was mixed with 50 mM Tris(pH 7.0), 1mM DTT, 0.5 mM EDTA, 10% Glycerol buffer containing 1∼100 µM of enzyme substrate, Ac-YVAD-AMC or Ac-DEVD-AMC and then the changes by isolated AMC at 37°C were recorded. The inhibitory activity for caspases was calculated from the early enzyme reaction rate by measuring the changes with fluorescence excited at […] and emitted at 460 nm (Range; Ki<100nM).

caspase-3 = biological target: T2, caspase-3 (Homo sapiens, UniProt P42574); assay: as above; assay type: biochemical; conditions: Irreversible Inhibitors; for kinact/KI: read-out: Kobs/[I] for caspase-3
T2 construct: made in house
T2 sequence (P42574 29-175 limits assumed): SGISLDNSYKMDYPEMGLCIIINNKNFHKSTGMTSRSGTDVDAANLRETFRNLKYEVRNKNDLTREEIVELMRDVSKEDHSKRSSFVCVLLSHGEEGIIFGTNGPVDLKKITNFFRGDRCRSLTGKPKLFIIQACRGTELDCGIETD
T2 sequence (P42574 176-277 limits assumed): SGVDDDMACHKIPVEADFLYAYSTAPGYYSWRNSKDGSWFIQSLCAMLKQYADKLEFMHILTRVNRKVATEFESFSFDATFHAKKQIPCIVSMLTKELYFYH
Experimental: as §1, §2

Jurkat T cell = assay: MTT assay of cell death induced by Anti-FAS antibody CH11; assay type: cell-based; conditions: Homo sapiens; Jurkat T cell treated with Anti-FAS antibody CH11, MTT; read-out: ED50 FAS Induced cell death
[1] = test system: anti-Fas antibody-induced liver apoptosis; assay: Anti-Fas antibody (Jo2)-induced liver apoptosis and lethality in mice; assay type: in vivo, C57BL/6 female mice
Experimental: […] C57BL/6 female mice(18-20 g) were injected i.p. with compound 33MP dissolved in vehicle which consists of olive oil and 10% DMSO, or vehicle alone, at 1 hr before i.v. injection with 10 µg of Anti-Fas antibody (Jo2). Following 4 hrs of i.v. injection with Jo2 antibody, animals were placed under inhaled isoflurane anesthesia for blood collection and liver isolation. Mice were also i.p. injected with 0.2 µg/20 g of TNFα and 12 mg/20 g of D-galactosamine(TNFα /GalN) and compound 33MP or its salt form (Compound 33MP-Na). 8 hrs later, blood and liver tissues were isolated from anesthetized animals. The liver tissues were snap-frozen and stored at -80° C until use. Plasma was isolated from blood by centrifugation at 12,000 x g for 10 min at 4° C and stored at -80° C. In some experiments for animal mortality, mice were i.p. injected with TNFα /GalN and caspase inhibitor was injected 1 hr before, simultaneously, 2 hrs, or 4 hrs after TNFα /GalN injection.
Whole tissues (0.5 g) were homogenated in ice-cold lysis buffer (5 mM Tris, 20 mM EDTA, 0.5% Triton-X 100, pH8.0). The lysate was centrifuged at 12,000 x g for 20 min at 4° C. The supernatant was obtained and extracted twice with a mixture of phenol and chloroform. One-tenth volume of 3 M sodium acetate was added to the solution, and DNA was precipitated by adding an equal volume of isopropanol. After storing at -20° C overnight, a DNA pellet was obtained by centrifugation at 12,000 x g for 15 min. at 4 ° C and washed twice with 75% ethanol. The pellet was dried and resuspended in 100 µl of 20 mM Tris-HCl, pH 8.0. After digesting RNA with DNase-free RNase (0.1 mg/ml) at 37 ° C for 1 hr, samples […] were electrophoresed through a 1.2% agarose gel in […] Tris borate + EDTA (TBE), pH 8.0 buffer. DNA was photographed under visualized with UV light.
Liver tissues were homogenated in 10 mM HEPES buffer containing protease inhibitors (5 µg/ml aprotinin, 5 µg/ml pepstatin A, 10 µg/ml leupeptin, and 0.5 mM PMSF) and lysed by three freeze/thaw cycles. The cytosolic fraction was obtained by centrifugation at 12,000 x g for 20 min. at 4" C. Protein concentration was determined with BCA protein assay reagent (pierce, Rockford, IL). Cytosol containing 200 µg protein was combined in 96-well plate with […] of synthetic substrate Ac-DEVD-pNA in 150 µl of 100 mM HEPES, pH 7.4, containing the protease inhibitors, and the reaction was conducted for 1 hr at 37° C. […] Plasma level of aspartate aminotransferase (AST) was analyzed by spectrophotometry using each enzyme assay kit (Sigma).

[2] = test system: TNFα -mediated liver toxicity; assay: TNFα-mediated liver toxicity and mortality in mice; assay type: in vivo, C57BL/6 female mice
[3] = mice treated with TNFα /ActD (so in the source)

CC(C)[C@H](NC(=O)CCc1ccccc1)C1=NOC(Cc2ccccc2)(C(=O)N[C@@H](CC(=O)O)C(=O)COC(=O)c2c(Cl)cccc2Cl)C1 (mixture of isomers) [Compound 32, (3S)-3-{3-[2-methyl-(1S)-1-(phenylethylcarbonylamino)-propyl]-5-phenylmethyl-4,5-dihydro-isoxazole-5-carbonylamino}-4-keto-5-(2,6-dichlorobenzoyloxy)-pentanoic acid]
kinact/KI (caspase-1): 130000 M⁻¹ s⁻¹
kinact/KI (caspase-3): 114 M⁻¹ s⁻¹
EC50 (Jurkat T cell): 1 to 10 µM

CC1(C(=O)N[C@@H](CC(=O)O)C(=O)COC(=O)c2c(Cl)cccc2Cl)CC([C@H](CCC(=O)O)NC(=O)CCC(=O)O)=NO1 (single isomer, unassigned) [Compound 72]
kinact/KI (caspase-1): 30800 M⁻¹ s⁻¹
kinact/KI (caspase-3): 176000 M⁻¹ s⁻¹
EC50 (Jurkat T cell): 1 to 10 µM

CCCC1(C(=O)N[C@@H](CC(=O)O)C(=O)COC(=O)c2c(Cl)cccc2Cl)CC([C@@H](NC(=O)CCC(=O)O)C(C)C)=NO1 (single isomer, unassigned) [Compound 76]
kinact/KI (caspase-1): 14000 M⁻¹ s⁻¹
kinact/KI (caspase-3): 197000 M⁻¹ s⁻¹
EC50 (Jurkat T cell): 1 to 10 µM

CCCCC1(C(=O)N[C@@H](CC(=O)O)C(=O)COC(=O)c2c(Cl)cccc2Cl)CC([C@@H](NC(=O)CCC(=O)O)C(C)C)=NO1 (single isomer, unassigned) [Compound 80]
kinact/KI (caspase-1): 14900 M⁻¹ s⁻¹
kinact/KI (caspase-3): 1.14e+06 M⁻¹ s⁻¹
EC50 (Jurkat T cell): 1 to 10 µM

CC(C)[C@H](NC(=O)c1cccc2ccccc12)C1=NOC(Cc2ccccc2)(C(=O)N[C@@H](CC(=O)O)C(=O)COC(=O)c2c(Cl)cccc2Cl)C1 (stereo partly drawn) [Compound 33mp, (3S)-3-{3-[2-methyl-(1S)-1-(1-naphthalenecarbonylamino)-propyl]-5-phenylmethyl-4,5-dihydro-isoxazole-5-carbonylamino}-4-keto-5-(2,6-dichlorobenzoyloxy)-pentanoic acid]
kinact/KI (caspase-1): 807000 M⁻¹ s⁻¹
kinact/KI (caspase-3): 500 M⁻¹ s⁻¹
EC50 (Jurkat T cell): 1 to 10 µM
liver apoptosis as determined by DNA fragmentation ([1]; 0.4 mg/20 g, 1 mg/20 g i.p. 1 hr before anti-Fas antibody, 4 hrs after antibody): suppressed the liver apoptosis in a dose-dependent manner
release of liver enzyme AST ([1]; anti-Fas antibody-treated mice): significantly suppressed
reduction of mortality ([1]; anti-Fas antibody-treated mice (85% died within 24 hrs without treatment)): about 30%
caspase-3-like activity in liver tissues ([1]; anti-Fas antibody-treated mice, Ac-DEVD-pNA): abrogated
animals survived ([2]; TNFα /ActD-mediated mouse mortality, within 24 hrs): 80%
DNA fragmentation in liver tissues [2, 3]: significantly reduced
caspase-3-like activity in liver [2, 3]: suppressed
release of AST [2, 3]: suppressed

CC(C)[C@H](NC(=O)c1ccc2ccccc2n1)C1=NOC(Cc2ccccc2)(C(=O)N[C@@H](CC(=O)O)C(=O)COC(=O)c2c(Cl)cccc2Cl)C1 (stereo partly drawn) [Compound 42mp, (3S)-3-{3-[2-methyl-(1S)-1-(quinoline-2-yl-carbonylamino)-propyl]-5-phenylmethyl-4,5-dihydro-isoxazole-5-carbonylamino}-4-keto-5-(2,6-dichlorobenzoyloxy)-pentanoic acid]
kinact/KI (caspase-1): 408000 M⁻¹ s⁻¹
kinact/KI (caspase-3): 160 M⁻¹ s⁻¹
EC50 (Jurkat T cell): 1 to 10 µM

CC(C)[C@H](NC(=O)c1cccc2ccccc12)C1=NOC(Cc2ccccc2)(C(=O)N[C@@H](CC(=O)O)C(=O)COC(=O)c2c(F)cccc2F)C1 (stereo partly drawn) [Compound 58, (3S)-3-{3-[2-methyl-(1S)-1-(naphthalene-1-carbonylamino)-propyl]-5-phenylmethyl-4,5-dihydro-isoxazole-5-carbonylamino}-4-keto-5-(2,6-difluorobenzoyloxy)-pentanoic acid]
kinact/KI (caspase-1): 577000 M⁻¹ s⁻¹
kinact/KI (caspase-3): 371 M⁻¹ s⁻¹
EC50 (Jurkat T cell): 1 to 10 µM

CC(C)[C@H](NC(=O)CCC(=O)O)C1=NOC(Cc2ccccc2)(C(=O)N[C@@H](CC(=O)O)C(=O)COC(=O)c2c(Cl)cccc2Cl)C1 (stereo partly drawn) [Compound 86, (3S)-3-{3-[2-methyl-(1S)-1-(succinoylamino)-propyl]-5-phenylmethyl-4,5-dihydro-isoxazole-5-carbonylamino}-4-keto-5-(2,6-dichlorobenzoyloxy)-pentanoic acid]
Kobs/[I] for caspase-1 (caspase-1): 7560 M⁻¹ s⁻¹
Kobs/[I] for caspase-3 (caspase-3): 28000 M⁻¹ s⁻¹

COCC1(C(=O)N[C@@H](CC(=O)O)C(=O)COC(=O)c2c(Cl)cccc2Cl)CC([C@@H](NC(=O)CCC(=O)O)C(C)C)=NO1 (stereo partly drawn) [Compound 87, (3S)-3-{3-[2-methyl-(1S)-1-(succinoylamino)-propyl]-5-methoxymethyl-4,5-dihydro-isoxazole-5-carbonylamino}-4-keto-5-(2,6-dichlorobenzoyloxy)-pentanoic acid]
Kobs/[I] for caspase-1 (caspase-1): 3400 M⁻¹ s⁻¹
Kobs/[I] for caspase-3 (caspase-3): 27400 M⁻¹ s⁻¹
